# Data reported in the supplement of paper PMC13380429.
# Tests used:
# Details in all cases: 72 h
# Caco-2 [1] = experiment: cell viability relative to DMSO; higher = less toxic
# Calu-3 [2] = experiment: as above
# HepG2 [3] = experiment: as above
# U2OS [4] = experiment: as above
# Vero E6 [5] = experiment: as above
# Calu-3 [6] = experiment: relative viability EC50 (midpoint between 100% and the lowest measured viability); higher = less toxic
# HepG2 [7] = experiment: as above
# U2OS [8] = experiment: as above
# Vero E6 [9] = experiment: as above
# Caco-2 [10] = experiment: drug sensitivity score (DSS) for viability; higher = more toxic; extreme values may be limits of the assay
# Calu-3 [11] = experiment: as above
# HepG2 [12] = experiment: as above
# U2OS [13] = experiment: as above
# Vero E6 [14] = experiment: as above
# Caco-2 [15] = experiment: relative viability EC50 (midpoint between 100% and the lowest measured viability); higher = less toxic
SMILES,cell viability (Caco-2 [1]; 1 nM) [%],cell viability (Caco-2 [1]; 10 nM) [%],cell viability (Caco-2 [1]; 100 nM) [%],cell viability (Caco-2 [1]; 1000 nM) [%],cell viability (Caco-2 [1]; 10000 nM) [%],cell viability (Calu-3 [2]; 1 nM) [%],cell viability (Calu-3 [2]; 10 nM) [%],cell viability (Calu-3 [2]; 100 nM) [%],cell viability (Calu-3 [2]; 1000 nM) [%],cell viability (Calu-3 [2]; 10000 nM) [%],cell viability (HepG2 [3]; 1 nM) [%],cell viability (HepG2 [3]; 10 nM) [%],cell viability (HepG2 [3]; 100 nM) [%],cell viability (HepG2 [3]; 1000 nM) [%],cell viability (HepG2 [3]; 10000 nM) [%],cell viability (U2OS [4]; 1 nM) [%],cell viability (U2OS [4]; 10 nM) [%],cell viability (U2OS [4]; 100 nM) [%],cell viability (U2OS [4]; 1000 nM) [%],cell viability (U2OS [4]; 10000 nM) [%],cell viability (Vero E6 [5]; 1 nM) [%],cell viability (Vero E6 [5]; 10 nM) [%],cell viability (Vero E6 [5]; 100 nM) [%],cell viability (Vero E6 [5]; 1000 nM) [%],cell viability (Vero E6 [5]; 10000 nM) [%],relative viability EC50 (Calu-3 [6]) [µM],relative viability EC50 (HepG2 [7]) [µM],relative viability EC50 (U2OS [8]) [µM],relative viability EC50 (Vero E6 [9]) [µM],drug sensitivity score (Caco-2 [10]),drug sensitivity score (Calu-3 [11]),drug sensitivity score (HepG2 [12]),drug sensitivity score (U2OS [13]),drug sensitivity score (Vero E6 [14]),relative viability EC50 (Caco-2 [15]) [µM]
CCCCN(CC)c1nc(C)nc2c1c(C)c(C)n2-c1c(C)cc(C)cc1C [antalarmin],105,92.9,102,91.4,70.3,102,94.4,95.6,99,104,99,97.2,97.4,97.8,77.2,107,98.8,98.1,99,101,96,92.6,97.3,101,98.2,> 10,> 10,> 10,> 10,2.5,0,1.1,0,0,
CCOC(=O)OC(C)OC(=O)[C@@H]1N2C(=O)[C@@H](NC(=O)[C@H](N)c3ccccc3)[C@H]2SC1(C)C (stereo partly specified) [bacampicillin],96.3,94,95.9,98,104,94.1,82.4,102,103,110,97.6,114,103,100,94.6,,,,,,91.8,96.7,97.9,98.1,98.6,> 10,> 10,,> 10,0,0,0,,0,> 10
C[C@@H](c1nc(-c2ccc(C#N)cc2)cs1)[C@](O)(Cn1cncn1)c1cc(F)ccc1F [isavuconazole],96.3,99.8,96,93.9,74.3,95.7,90.1,98.7,101,99.2,106,96,93.8,100,79.2,98.2,102,93.9,101,90.9,100,98,102,98.6,100,> 10,> 10,> 10,> 10,1.8,0,0.6,0,0,
CCN(CC)C(=O)[C@@]1(c2ccccc2)C[C@H]1CN [milnacipran],99.9,87.3,87.5,99.8,98.7,106,93.5,97.9,95,97.9,101,86.7,98.9,107,90.9,,,,,,94.6,102,97.8,102,98.2,> 10,> 10,,> 10,0,0,0,,0,> 10
CCOc1cc2ncc(C#N)c(Nc3ccc(F)c(Cl)c3)c2cc1NC(=O)/C=C/CN(C)C [pelitinib],96.9,96.9,85.8,64.7,51.2,88.1,83,45,32,9.5,107,99.5,99,59.7,40.2,99,98.9,93.6,67.7,5.3,106,96.4,87.3,22.6,7.9,0.0707,0.706,1.38,0.334,7.9,21.7,8.1,9.3,15.9,
COC[C@@H](c1ccc(C(F)(F)F)cc1)N1CCN(C2(C)CCN(C(=O)c3c(C)ncnc3C)CC2)C[C@@H]1C [vicriviroc],,,,,,106,93.6,104,96.6,104,98.8,101,98.9,101,84.8,100,94.2,95,96.6,95,95.3,97,89.9,95.7,94.7,> 10,> 10,> 10,> 10,,0,0.2,0,0,
